This experiment deals with bacteria. Put plainly: antimicrobial activity of nisin preparations placed on a skin or agar surface. It is filed as cell-based. An excerpt: Most important in this embodiment is the principle that nisin must be placed in the external aqueous phase of this preparation. […] In an ointment preparation, it is retained by the lipid phase and fails to dissipate and kill bacteria.

As for Nisin, the antimicrobial activity entry (nisin in an ointment preparation with little or no water) is “largely inactive” and the antimicrobial activity entry (nisin in the external aqueous phase of an oil in water emulsion, placed on a skin or agar surface) is recorded as “highly active”.

For the origin of these results see patent publication US20140187475A1, “Lantibiotic Compositions and Methods For Preventing or Treating Mastitis” (Medela Holding AG, priority 2012, published 2014).
